Test results reported in paper PMC2805240 (Journal of chemical information and modeling, 2009).

Columns and labels:
[1] = target: anthrax toxin lethal factor (Bacillus anthracis, UniProt P15917); assay: biochemical
LF = conditions: read-out: IC50 in a LF enzyme assay; cited from earlier work
macrophage = conditions: cited from earlier work

anthrax toxin lethal factor, sequence (P15917 34-809 limits assumed): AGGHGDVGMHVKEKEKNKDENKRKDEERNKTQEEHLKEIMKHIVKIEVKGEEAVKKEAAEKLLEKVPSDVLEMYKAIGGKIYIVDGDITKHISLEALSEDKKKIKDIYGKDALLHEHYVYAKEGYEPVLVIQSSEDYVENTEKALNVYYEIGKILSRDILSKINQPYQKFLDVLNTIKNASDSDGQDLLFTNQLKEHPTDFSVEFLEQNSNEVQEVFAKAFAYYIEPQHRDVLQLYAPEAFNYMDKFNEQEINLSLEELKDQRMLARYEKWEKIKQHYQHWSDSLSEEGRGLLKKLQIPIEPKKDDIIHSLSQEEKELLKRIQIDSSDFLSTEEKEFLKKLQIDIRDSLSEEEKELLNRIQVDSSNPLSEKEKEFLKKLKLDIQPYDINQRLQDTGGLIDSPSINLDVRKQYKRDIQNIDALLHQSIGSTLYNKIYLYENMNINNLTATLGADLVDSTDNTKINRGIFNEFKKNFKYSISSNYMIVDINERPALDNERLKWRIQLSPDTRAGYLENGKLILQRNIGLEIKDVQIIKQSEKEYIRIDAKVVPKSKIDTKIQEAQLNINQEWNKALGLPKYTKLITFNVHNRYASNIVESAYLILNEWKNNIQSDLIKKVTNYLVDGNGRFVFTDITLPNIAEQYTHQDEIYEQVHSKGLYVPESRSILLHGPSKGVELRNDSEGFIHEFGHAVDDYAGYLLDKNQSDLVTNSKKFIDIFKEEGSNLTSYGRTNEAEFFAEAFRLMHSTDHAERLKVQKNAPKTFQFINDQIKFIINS

| Structure (SMILES) | IC50 [1] [µM] | IC50 (LF) [µM] | IC50 (macrophage) [µM] |
| --- | --- | --- | --- |
| CNC(=O)[C@H](Cc1c[nH]c2ccccc12)NC(=O)[C@@H](CC(=O)NO)CC(C)C [GM6001/M364205, ilomastat] | 10.2 ± 0.72 | – | – |
| Cc1cc(S(=O)(=O)N[C@@H](C(=O)NO)C2CCOCC2)ccc1F [compound 40, (2R)-2-[(4-fluoro-3-methylphenyl)sulfonylamino]-N-hydroxy-2-(tetrahydro-2H-pyran-4-yl)acetamide] | – | 0.054 | 0.21 |
| CCN(Cc1ccccc1)Cc1cc(Cl)ccc1O [compound 5421384, 2-[(benzyl(ethyl)amino)methyl]-4-chlorophenol] | 67.5 ± 2 | – | – |
| CCN(Cc1ccccc1)Cc1cc(I)cc(I)c1O [compound 5426202, 2-[(benzyl(ethyl)amino)methyl]-4,6-diiodophenol] | 49.5 ± 1.5 | – | – |
| CCN(Cc1ccccc1)Cc1cc(Br)ccc1O [compound 5428736, 2-[(benzyl(ethyl)amino)methyl]-4-bromophenol] | 73.9 ± 4.5 | – | – |
